Experimental data reported in the supplement of paper PMC11061612.

What was measured:
Experiment in all cases: Bliss excess, mean over the matrix (fraction); higher = more synergy
[1] = system: PCI-30 (Head and Neck Carcinoma)
Method in brief: (§1)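 After 24 hours at 37°C and 5% CO2 in 1536-well plates, cells in DMEM/F12 or RPMI plus 10% FBS received two-drug dose matrices for 72 hours. Viability came from CellTiter-Glo 2.0 luminescence and was scaled as inhibition, anchored at 0 by vehicle wells and at 1 by blank wells. Combination Emax is taken as the second-highest inhibition in the matrix, and Bliss excess as the observed combination effect less EA + EB − EA·EB, with EA and EB the single-agent effects.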

Mewo (Melanoma) = system: Mewo (Melanoma)
Method in brief: as §1

NCI-H2795 (Mesothelioma) = system: NCI-H2795 (Mesothelioma)
Method in brief: as §1

[2] = system: HO-1-u-1 (Oral Cavity Carcinoma)
Method in brief: as §1

[3] = system: OVCAR-8 (Ovarian Carcinoma)
Method in brief: as §1

[4] = system: LoVo (Colorectal Carcinoma)
Method in brief: as §1

NCI-H28 (Mesothelioma) = system: NCI-H28 (Mesothelioma)
Method in brief: as §1

[5] = system: 639-V (Bladder Carcinoma)
Method in brief: as §1

[6] = system: CTB-1 (B-Cell Non-Hodgkin's Lymphoma)
Method in brief: as §1

[7] = system: RPMI-6666 (Non-Cancerous)
Method in brief: as §1

[8] = system: K5 (Thyroid Gland Carcinoma)
Method in brief: as §1

HMV-II (Melanoma) = system: HMV-II (Melanoma)
Method in brief: as §1

[9] = system: SK-OV-3 (Ovarian Carcinoma)
Method in brief: as §1

[10] = system: EN (Endometrial Carcinoma)
Method in brief: as §1

SH-4 (Melanoma) = system: SH-4 (Melanoma)
Method in brief: as §1

NCI-H2461 (Mesothelioma) = system: NCI-H2461 (Mesothelioma)
Method in brief: as §1

[11] = system: SW1271 (Small Cell Lung Carcinoma)
Method in brief: as §1

NB14 (Neuroblastoma) = system: NB14 (Neuroblastoma)
Method in brief: as §1

[12] = system: HARA (Squamous Cell Lung Carcinoma)
Method in brief: as §1

[13] = system: NCI-H69 (Small Cell Lung Carcinoma)
Method in brief: as §1

| SMILES | Bliss excess [1] | Bliss excess (Mewo (Melanoma)) | Bliss excess (NCI-H2795 (Mesothelioma)) | Bliss excess [2] | Bliss excess [3] | Bliss excess [4] | Bliss excess (NCI-H28 (Mesothelioma)) | Bliss excess [5] | Bliss excess [6] | Bliss excess [7] | Bliss excess [8] | Bliss excess (HMV-II (Melanoma)) | Bliss excess [9] | Bliss excess [10] | Bliss excess (SH-4 (Melanoma)) | Bliss excess (NCI-H2461 (Mesothelioma)) | Bliss excess [11] | Bliss excess (NB14 (Neuroblastoma)) | Bliss excess [12] | Bliss excess [13] |
| --- | --- | --- | --- | --- | --- | --- | --- | --- | --- | --- | --- | --- | --- | --- | --- | --- | --- | --- | --- | --- |
| Cc1c2c(nn1C)CSCc1cc(n(C)n1)CSc1cc(c3ccccc3c1)OCCCc1c(C(=O)O)n(C)c3c-2c(Cl)ccc13 [AZD5991] + C1CN(CCC1(C(=O)N[C@@H](CCO)C2=CC=C(C=C2)Cl)N)C3=NC=NC4=C3C=CN4 [Capivasertib] (first compound max 1 µM, 7x7, partner max 3 µM) | 0.0204 | -0.0536 | 0.119 | 0.0242 | 0 | -0.069 | -0.0315 | -0.0036 | -0.0048 | 0.0216 | -0.021 | -0.0307 | -0.0065 | -0.0547 | -0.0029 | -0.0345 | -0.0664 | 0.0283 | -0.0041 | -0.026 |
| CC1(C)CCC(CN2CCN(c3ccc(C(=O)NS(=O)(=O)c4ccc(NCC5CCOCC5)c([N+](=O)[O-])c4)c(Oc4cnc5[nH]ccc5c4)c3)CC2)=C(c2ccc(Cl)cc2)C1 [Venetoclax] + C=CCn1c(=O)c2cnc(Nc3ccc(N4CCN(C)CC4)cc3)nc2n1-c1cccc(C(C)(C)O)n1 [AZD1775] (first compound max 1 µM, partner max 1 µM) | 0.0974 | -0.0079 | 0.0657 | -0.0256 | -0.0326 | -0.0625 | -0.048 | -0.0322 | -0.0812 | 0.0917 | -0.0279 | -0.0542 | -0.026 | 0.0619 | 0.0107 | 0.0234 | 0.0381 | 0.0967 | 0.0494 | -0.0251 |
| Cc1c2c(nn1C)CSCc1cc(n(C)n1)CSc1cc(c3ccccc3c1)OCCCc1c(C(=O)O)n(C)c3c-2c(Cl)ccc13 [AZD5991] + Cc1cc2ncnn2cc1Nc1ncc2c(n1)n(C1CCOCC1)c(=O)n2C [AZD7648] (first compound max 1 µM, 7x7, partner max 10 µM) | -0.0572 | -0.0211 | -0.0168 | -0.019 | -0.0129 | -0.0356 | -0.0051 | -0.005 | -0.0345 | -0.0204 | -0.0537 | -0.067 | -0.032 | -0.056 | -0.0079 | -0.0516 | -0.0308 | -0.0505 | 0.045 | -0.0501 |
| Cc1c2c(nn1C)CSCc1cc(n(C)n1)CSc1cc(c3ccccc3c1)OCCCc1c(C(=O)O)n(C)c3c-2c(Cl)ccc13 [AZD5991] + C=CCn1c(=O)c2cnc(Nc3ccc(N4CCN(C)CC4)cc3)nc2n1-c1cccc(C(C)(C)O)n1 [AZD1775] (first compound max 1 µM, partner max 1 µM) | 0.0371 | -0.0347 | 0.0734 | 0.0396 | -0.0075 | -0.064 | -0.0023 | 0.0854 | -0.0417 | 0.0122 | -0.0391 | 0.0001 | 0.0698 | -0.0038 | 0.101 | 0.0081 | -0.0385 | -0.0137 | 0.0014 | -0.116 |
| CC1(C)CCC(CN2CCN(c3ccc(C(=O)NS(=O)(=O)c4ccc(NCC5CCOCC5)c([N+](=O)[O-])c4)c(Oc4cnc5[nH]ccc5c4)c3)CC2)=C(c2ccc(Cl)cc2)C1 [Venetoclax] + CCN(CCO)CCCOc1ccc2c(Nc3cc(CC(=O)Nc4cccc(F)c4)[nH]n3)ncnc2c1 [AZD2811] (first compound max 1 µM, 7x7, partner max 1 µM) | -0.0231 | -0.0193 | -0.0581 | -0.0297 | 0.0431 | -0.0359 | -0.0346 | -0.0262 | -0.118 | 0.189 | -0.0231 | 0.0208 | -0.0401 | -0.0017 | -0.0115 | -0.0587 | -0.0483 | -0.0361 | 0.0345 | 0.0928 |
| CN(CCO)CC[C@H](CSc1ccccc1)Nc1ccc(S(=O)(=O)NC(=O)c2ccc(N3CCC([C@@H](O)c4ccccc4-c4ccc(Cl)cc4)CC3)cc2)cc1S(=O)(=O)C(F)(F)F [AZD4320] + Cn1cnc2c(F)c(Nc3ccc(Br)cc3Cl)c(C(=O)NOCCO)cc21 [Selumetinib] (first compound max 1 µM, 7x7, partner max 3 µM) | 0.0023 | 0.0374 | -0.02 | 0.0328 | 0.0974 | 0.0195 | 0.0103 | 0.22 | -0.0849 | -0.0047 | -0.0637 | 0.0015 | -0.0362 | -0.0088 | 0.107 | 0.0248 | 0.0306 | 0.0033 | 0.0265 | -0.0245 |
| COc1cc2c(cc1OCCCCCOc1cc3c(cc1OC)C(=O)N1C=C(C)C[C@H]1C=N3)N=C[C@@H]1CC(C)=CN1C2=O [SG3199] + O=C(c1cc(Cc2n[nH]c(=O)c3ccccc23)ccc1F)N1CCN(C(=O)C2CC2)CC1 [Olaparib] (first compound max 0.001 µM, 7x7, partner max 10 µM) | -0.0328 | -0.0489 | -0.0524 | -0.0205 | -0.0295 | -0.0455 | -0.0556 | -0.0289 | -0.043 | 0.0028 | -0.0105 | -0.0524 | -0.0477 | -0.0456 | -0.027 | -0.0652 | -0.0276 | -0.0283 | -0.0066 | -0.0136 |
